Key:
SQV-4 = biological target: T1, SQV-4 (Caenorhabditis elegans, UniProt Q19905, T2A); type: biochemical, C. elegans; conditions: UDP-glucose replaced; 100 μM NAD+ and 250 μM nucleotide sugar
T1 construct: were used for PCR-amplification of the sqv-4 ORF, and the resulting product was digested with NcoI and XhoI and cloned into pET21d; made in house; host or cells: E. coli BL21 pLysS, pET21d; soluble fraction used without purification
Excerpt: The sqv-4 coding sequences corresponding to the wild-type, n2827, and n2840 alleles were cloned into the pET21d E. coli expression vector and transformed into BL21 pLysS. The oligonucleotides 5′-[…]-3′ (SEQ ID NO:53) and 5′-[…]-3′ (SEQ ID NO:54) were used to generate R353H n2827 and T4101 n2840 mutations, respectively, by site-directed mutagenesis. The oligonucleotides 5′-[…]-3′ (SEQ ID NO:55) and 5′-[…]-3′ (SEQ ID NO:56) were used for PCR-amplification of the sqv-4 ORF, and the resulting product was digested with NcoI and XhoI and cloned into pET21d. All three proteins have a threonine to alanine mutation in the second amino acid because of the addition of an NcoI site at the 5′ end. SQV-4 expression was induced by incubation with 1 mM IPTG for three to four hours at 37° C. E. coli were pelleted and resuspended in 50 mM Tris-HCl pH 7.5, 1 mM DTT, 1 mM EDTA, 1 mM PMSF, 2 μg/ml pepstatin A, and aprotinin and lysed using a French pressure cell. The soluble fraction was separated from the insoluble inclusion bodies by centrifugation at 12,000 g for 20 minutes.
All assays were performed at room temperature (20 to 22° C.) in 50 mM Tris-HCl, 2 mM dithiothrietol (DTT), pH 8.7. The initial velocity of the reaction was determined from time points during the first 60 seconds after addition of the SQV-4 extract.

chondroitin synthase [1] = biological target: T2, chondroitin synthase (Caenorhabditis elegans, UniProt Q7Z1Z1); experiment: GlcAT (glucuronyl transferase) assay of chondroitin synthase activity in worm protein extracts; type: biochemical
T2 construct: wild-type (N2) animals were used to prepare worm protein extracts; from tissue; host or cells: whole C. elegans hermaphrodites (young adults), sonicated protein extract
T2 sequence (Q7Z1Z1 1-736): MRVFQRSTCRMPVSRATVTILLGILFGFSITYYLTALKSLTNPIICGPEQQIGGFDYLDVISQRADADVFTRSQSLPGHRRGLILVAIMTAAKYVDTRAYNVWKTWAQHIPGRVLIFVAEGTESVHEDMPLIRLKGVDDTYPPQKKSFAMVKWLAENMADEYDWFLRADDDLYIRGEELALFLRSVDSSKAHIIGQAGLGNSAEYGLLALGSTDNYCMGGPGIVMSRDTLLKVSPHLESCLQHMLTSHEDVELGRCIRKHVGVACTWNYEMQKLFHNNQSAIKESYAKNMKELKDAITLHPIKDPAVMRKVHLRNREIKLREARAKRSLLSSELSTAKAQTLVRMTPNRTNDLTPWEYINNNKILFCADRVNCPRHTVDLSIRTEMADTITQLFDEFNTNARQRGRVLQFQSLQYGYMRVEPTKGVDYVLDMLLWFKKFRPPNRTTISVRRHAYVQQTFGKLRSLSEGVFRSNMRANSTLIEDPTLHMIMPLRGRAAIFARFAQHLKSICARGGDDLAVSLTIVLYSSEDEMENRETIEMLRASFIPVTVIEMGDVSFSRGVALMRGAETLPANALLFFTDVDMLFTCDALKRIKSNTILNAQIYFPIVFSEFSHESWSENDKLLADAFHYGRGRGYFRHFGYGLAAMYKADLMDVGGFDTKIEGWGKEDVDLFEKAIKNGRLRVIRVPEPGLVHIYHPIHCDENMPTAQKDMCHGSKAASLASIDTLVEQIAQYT
Procedure: (§1) sqv-5(n3611), sqv-5(n3611)/hT2, and wild-type (N2) animals were used to prepare worm protein extracts. These extracts were tested for chondroitin synthase activity using standard methods, for example, in DeAngelis et al., (J. Biol. Chem. 27:24124-24129, 2000).
(§2) A desulfated chondroitin acceptor was used for the GalNAcT (N-acetylgalactosamyl transferase) assay. Desulfated and β-glucuronidase-treated chondroitin acceptor was used for the GlcAT (glucuronyl transferase) assay.
(§3) The enzymatic activity of SQV-5 was assayed as follows. SQV-5(n3611), sqv-5(n3611)/hT2, and wild-type N2 hermaphrodites were picked as L4 larvae by visual examination of the vulva using a dissecting microscope. The worms staged were allowed to grow for an additional twenty-three to twenty-seven hours at 22° C., re-examined, then transferred to 1.7-ml plastic tubes containing sterile water. The staged worms were washed once with water and twice with 50 mM Tris, pH 7.5, then frozen in a 50 μl volume using liquid nitrogen, and stored at −70° C.
(§4) Worm extracts were assayed for GIcAT glucoronosyltransferase activity by combining 1.3×10^5 cpm UDP-^3H-glucuronic acid donor (NEN), 6 μg β-glucuronidase-treated chondroitin acceptor, and 2.7 μg worm extract in a 25 μl reaction volume containing 0.05% Triton X-100, 10 mM MnCl2, and 100 μM ATP, pH 6.5. GalNAcT activity was detected by combining 1.3 to 3×10^5 cpm UDP-^3H-GalNAc donor (NEN), 12 μg chondroitin acceptor, and 6.7 μg worm extract in a 25 μl reaction volume containing 0.05% Triton X-100 and 10 mM MnCl2, pH 6.5. […] Pelleted material was resuspended in water and counted by liquid scintillation.
(§5) The chondroitin acceptor used was prepared as follows. […] Uronic acid concentration of both preparations was determined by the Carbazole method (Bitter, et al., Anal. Biochem. 4:330-334, 1962).

chondroitin synthase [2] = experiment: as above; type: biochemical; conditions: extract genotype sqv-5/sqv-5 (sqv-5(n3611))
Procedure: as §1, §2, §3, §4, §5

T1 sequence (Q19905 whole entry T2A): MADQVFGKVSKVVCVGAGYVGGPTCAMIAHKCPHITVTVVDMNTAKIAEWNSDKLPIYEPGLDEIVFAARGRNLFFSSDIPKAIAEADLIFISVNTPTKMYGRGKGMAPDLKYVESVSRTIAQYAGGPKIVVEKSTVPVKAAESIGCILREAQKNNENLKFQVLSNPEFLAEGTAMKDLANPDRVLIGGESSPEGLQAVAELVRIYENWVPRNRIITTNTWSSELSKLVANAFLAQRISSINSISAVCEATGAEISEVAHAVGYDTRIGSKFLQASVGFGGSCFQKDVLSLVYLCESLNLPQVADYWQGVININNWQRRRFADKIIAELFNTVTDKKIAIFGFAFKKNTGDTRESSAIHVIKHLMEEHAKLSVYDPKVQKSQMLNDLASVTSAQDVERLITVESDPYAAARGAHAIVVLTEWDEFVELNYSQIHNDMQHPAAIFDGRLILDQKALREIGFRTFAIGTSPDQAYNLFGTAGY

## O=C(O)[C@H]1O[C@H](OP(=O)(O)OP(=O)(O)OC[C@H]2O[C@@H](n3ccc(=O)[nH]c3=O)[C@H](O)[C@@H]2O)[C@H](O)[C@@H](O)[C@@H]1O [UDP-glucuronic acid]
SQV-4
  NAD+ reduction: undetectable
Chondroitin synthase [1]; extract genotype +/+ (wild-type)
  CPM: 1820 CPM
Chondroitin synthase [1]; extract genotype +/sqv-5 (sqv-5(n3611)/hT2)
  CPM: 1369 CPM
Chondroitin synthase [2]
  CPM: 109 CPM

Source: US7442501B2, “SQV nucleic acids and polypeptides” (Massachusetts Institute of Technology, priority 2002, dated 2008)
